Assays:
Assay type in all cases: cell-based
[1] = test system: B16 murine melanoma cells; experiment: Growth inhibition of B16 murine melanoma cells, MTT assay; conditions: B16 melanoma cells; read-out: IC50, growth inhibition
Protocol: The growth inhibitory activities of bis(propargylic) sulfone crown ethers 2.47 and 2.48 against B16 murine melanoma cells were determined calorimetrically with an MTT assay conducted by the Institute for Drug Development at the Cancer Research and Therapy Center in San Antonio, Tex.

[2] = test system: T-47D; experiment: DTP Human Tumor Cell Line Screen, sulforhodamine B assay; conditions: Breast Cancer, 48 h
Protocol: (§1) The growth inhibitory activity of propargylic sulfone 3.2 against a wide range of human cancer cell lines was determined calorimetrically with sulforhodamine B assay conducted by the National Cancer Institute of the National Institutes of Health.
(§2) The in vitro cytotoxicity of compounds 2.47, 2.48 and 3.2 were investigated using the DTP Human Tumor Cell Line Screen. The concept, rationale and history of development of the DTP Human Tumor Cell Line Screen were described by Boyd (1993;1997)^8.4, 8.6 and Boyd and Paull (1995)^8.5. Further technical details of the NCI screening procedures were described (Monks, et. al.)^8.2 as were the origins and processing of the cell lines (Alley, et. al., Shoemaker, et. al., Stinson, et. al.). Briefly, cell suspensions that were diluted according to the particular cell type and the expected target cell density (5000-40,000 cells per well based on cell growth characteristics) were added by pipet (100 μL) into 96-well microtiter plates. Inoculates were allowed a preincubation period of 24 h at 37° C. for stabilization. Dilutions at twice the intended test concentration were added at time zero in 100-μL aliquots to the microtiter plate wells. Usually, test compounds were evaluated at five 10-fold dilutions. In routine testing, the highest well concentration is 10E-4 M, but for the standard agents the highest well concentration used depended on the agent. Incubations lasted for 48 h in 5% CO2 atmosphere and 100% humidity. The cells were assayed by using the sulforhodamine B assay (Rubinstein, et. al., Skehan, et. al.). A plate reader was used to read the optical densities, and a microcomputer processed the optical densities into the special concentration parameters.

[3] = test system: NCI-H226; experiment: as above; conditions: Non-Small Cell Lung Cancer, 48 h
Protocol: as §1, §2

[4] = test system: HCC-2998; experiment: as above; conditions: Colon Cancer, 48 h
Protocol: as §1, §2

[5] = test system: SF-268; experiment: as above; conditions: CNS Cancer, 48 h
Protocol: as §1, §2

[6] = test system: OVCAR-8; experiment: as above; conditions: Ovarian Cancer, 48 h
Protocol: as §1, §2

[7] = test system: UACC-257; experiment: as above; conditions: Melanoma, 48 h
Protocol: as §1, §2

[8] = test system: A498; experiment: as above; conditions: Renal Cancer, 48 h
Protocol: as §1, §2

[9] = test system: SF-539; experiment: as above; conditions: CNS Cancer, 48 h
Protocol: as §1, §2

[10] = test system: SNB-19; experiment: as above; conditions: CNS Cancer, 48 h
Protocol: as §1, §2

[11] = test system: MDA-MB-435; experiment: as above; conditions: Breast Cancer, 48 h
Protocol: as §1, §2

[12] = test system: NCI-H522; experiment: as above; conditions: Non-Small Cell Lung Cancer, 48 h
Protocol: as §1, §2

[13] = test system: SK-MEL-28; experiment: as above; conditions: Melanoma, 48 h
Protocol: as §1, §2

[14] = test system: BT-549; experiment: as above; conditions: Breast Cancer, 48 h
Protocol: as §1, §2

[15] = test system: SF-295; experiment: as above; conditions: CNS Cancer, 48 h
Protocol: as §1, §2

[16] = test system: NCI-H460; experiment: as above; conditions: Non-Small Cell Lung Cancer, 48 h
Protocol: as §1, §2

[17] = test system: IGROV1; experiment: as above; conditions: 48 h
Protocol: as §1, §2

[18] = test system: MALME-3M; experiment: as above; conditions: Melanoma, 48 h
Protocol: as §1, §2

[19] = test system: M14; experiment: as above; conditions: Melanoma, 48 h
Protocol: as §1, §2

[20] = test system: RPMI-8226; experiment: as above; conditions: Leukemia, 48 h
Protocol: as §1, §2

| Compound | IC50 [1] [µM] | IC50 [2] [µM] | IC50 [3] [µM] | IC50 [4] [µM] | IC50 [5] [µM] | IC50 [6] [µM] | IC50 [7] [µM] | IC50 [8] [µM] | IC50 [9] [µM] | IC50 [10] [µM] | IC50 [11] [µM] | IC50 [12] [µM] | IC50 [13] [µM] | IC50 [14] [µM] | IC50 [15] [µM] | IC50 [16] [µM] | IC50 ([17]; Ovarian Cancer) [µM] | IC50 [18] [µM] | further results |
| --- | --- | --- | --- | --- | --- | --- | --- | --- | --- | --- | --- | --- | --- | --- | --- | --- | --- | --- | --- |
| O=S1(=O)CC#CCOCCOCCOCCOCCOCCOCC#CC1 [Compound 2.47] | 54.2 | 20.6 | 39.7 | 19.1 | 24.2 | 14.2 | 11.6 | 16.9 | 11.1 | 18.2 | 13.3 | 2.86 | 18.9 | 14.1 | 32 | 19.3 | 16.3 | 2.7 | – |
| O=S1(=O)CC#CCOCCOCCOCCOCCOCCOCCOCC#CC1 [Compound 2.48] | 44.7 | 24.5 | 86.9 | 17.7 | 30.5 | 33.3 | 21.2 | 54.7 | 26.2 | 27.9 | 20.4 | 10.6 | 17.9 | 20 | 81.2 | 38 | 44.6 | 14.6 | IC50 [19]: 16.9 µM; IC50 [20]: 17.4 µM |
| O=C(OCC1COCCOCCOCCOCCO1)c1ccc(CS(=O)(=O)CC#CCO)cc1 (centres unmarked) [Compound 3.2] | – | – | – | – | – | – | – | – | – | – | – | – | – | – | – | – | – | – | IC50 ([3]; Homo sapiens): > 100 µM; IC50 ([4]; Homo sapiens): > 100 µM; IC50 ([5]; Homo sapiens): > 100 µM; IC50 ([6]; Homo sapiens): > 100 µM; IC50 ([7]; Homo sapiens): > 100 µM; IC50 ([8]; Homo sapiens): > 100 µM; IC50 ([9]; Homo sapiens): 46.8 µM; IC50 ([10]; Homo sapiens): > 100 µM; IC50 ([11]; Homo sapiens): > 100 µM; IC50 ([12]; Homo sapiens): 18.8 µM; IC50 ([13]; Homo sapiens): > 100 µM; IC50 ([19]; Homo sapiens): > 100 µM; IC50 ([14]; Homo sapiens): > 100 µM; IC50 ([15]; Homo sapiens): > 100 µM; IC50 ([16]; Homo sapiens): > 100 µM; IC50 ([17]; Homo sapiens, IGROV-1, Ovarian Cancer): > 100 µM; IC50 ([18]; Homo sapiens): > 100 µM; IC50 ([20]; Homo sapiens): 8.4 µM |

Source: patent publication US20020155443A1, “Metal binding DNA interactive compounds” (priority 2000, published 2002)
